Here are results for 16 molecules from PMC6204753, “Non-native autoinducer analogs capable of modulating the SdiA quorum sensing receptor in Salmonella enterica serovar Typhimurium” (Beilstein Journal of Organic Chemistry, 2018).

Marks after values point to notes of the source that are not given here.

As usually defined, the EC50 is the midpoint of the concentration-response curve. What is called inhibition is the drop in the measured response relative to a control, in per cent. By IC50 is commonly meant the concentration at which inhibition is half-maximal. High values mean weaker potency in that assay, low ones greater potency in that assay.

Experiment [1] concerns the target T1, SdiA (Salmonella enterica subsp. enterica serovar Typhimurium, UniProt O66040). Nature of the experiment: S. Typhimurium-pJNS25 SdiA reporter, agonism (luminescence). It is filed as cell-based. The conditions noted are these: for EC50: agonism dose–response, read-out: EC50; for Emax: read-out: activation (%); for fold increase: potency of thiolactone over corresponding lactone (EC50 ratio). The text has this:
(§1) Biological assays for SdiA activity. Cell-based reporter strains that rely on detecting the transcriptional activity of LuxR-type receptors are commonly used to assess the activity of exogenous ligands. We used the S. Typhimurium-pJNS25 reporter strain constructed by Smith and Ahmer and also used by Janssens et al. to examine SdiA activity. This strain naturally produces SdiA and contains a reporter plasmid with the promoter region for srgE fused to the luxABCDE operon of V. fischeri (see Experimental section for details of all strains and plasmids). SdiA activity is thus reported by the production of luciferase and resulting bioluminescence. We also prepared an SdiA reporter in E. coli (JLD271-pJN105SE-pSC11SE) to examine S. Typhimurium SdiA activity in an alternate background and with a different reporter gene output. […] This reporter construct uses an arabinose inducible promoter to produce S. Typhimurium SdiA and the promoter region for srgE fused to lacZ to report SdiA activity. SdiA activity is then measured using standard β-galactosidase assays. In both reporter strains, signal was normalized to the difference between the positive control (10 μM OOHL) and the negative control (1% DMSO; no compound).
(§2) Salmonella SdiA reporter assay. S. Typhimurium-pJNS25 was grown 16–18 h overnight in LB, diluted 1:100 in fresh LB medium, and then incubated for 6 h at 37 °C with shaking at 200 rpm in the presence of compounds (1% DMSO). […] All compounds were screened at 100 μM and 1 μM in triplicate in agonism and antagonism assays. […] Dose–response analyses were performed by preparing dilutions of compounds in DMSO and testing each concentration in the agonism or antagonism assays. Competition dose–response assays (data in Figure 5) were performed in the same manner as the antagonism assays, except instead of OOHL being added to the subculture, the antagonist being tested was added. Non-linear regression curve fits were generated using GraphPad Prism software (version 6) using variable slope (four parameter) dose–response analysis.

In experiment [2] the target is T1, SdiA. Nature of the experiment: S. Typhimurium-pJNS25 SdiA reporter, competitive antagonism against 10 nM L-OOHL. The experiment is classed as cell-based. The conditions noted are these: for inhibition at 1 µM / Antagonism 1 μM Inhibition (%): 1 μM compound; for inhibition at 1 µM / inhibition at 100 µM / Antagonism 1 μM Inhibition (%) / Antagonism 100 μM Inhibition (%): average ± STD, change in activity from 10 nM 2 (OOHL); for inhibition at 1 µM: read-out: Antagonism 1 μM Inhibition (%); for inhibition at 100 µM / Antagonism 100 μM Inhibition (%): 100 μM compound; for inhibition at 100 µM: read-out: Antagonism 100 μM Inhibition (%); for Emax: maximal inhibition, 100% minus lowest % activity in presence of 10 nM L-OOHL (2), read-out: inhibition (%).
Text: as §1, §2

The mark [3] stands for this setting: maximal activity (efficacy) from agonism dose–response, 10 μM OOHL = 100%, DMSO = 0%.
Setting [4] is: maximal activation of the antagonists (partial agonism), Table 3.

T1 sequence (O66040 entry or part of it): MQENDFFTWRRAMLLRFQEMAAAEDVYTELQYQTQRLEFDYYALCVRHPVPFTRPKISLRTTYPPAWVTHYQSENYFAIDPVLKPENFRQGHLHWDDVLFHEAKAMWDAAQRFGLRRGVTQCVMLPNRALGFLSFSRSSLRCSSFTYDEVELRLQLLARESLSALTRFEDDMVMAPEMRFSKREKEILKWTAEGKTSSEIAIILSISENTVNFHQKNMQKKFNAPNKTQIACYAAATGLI

As for `O=C(Cc1cccc(I)c1)N[C@H]1CCOC1=O` [C11], the EC50 at SdiA [1] came to 20.6 nM. The Emax on SdiA [1] (setting [3]) stood at 90%. On SdiA [2], the inhibition at 1 µM was 15 ± 11% and the inhibition at 100 µM is -4 ± 2%.
For the molecule `O=C(Cc1cccc([N+](=O)[O-])c1)N[C@H]1CCOC1=O` [C14], at SdiA [1], the EC50 is 28.3 nM. For the same molecule, on SdiA [2], the inhibition at 1 µM was found to be 0% and the inhibition at 100 µM was -17 ± 9%.
With `O=C(Cc1ccc(-c2ccccc2)cc1)N[C@H]1CCOC1=O` [C18], the Emax at SdiA [1] (setting [4]) is 48%. On SdiA [2], the inhibition at 1 µM stood at 11 ± 3%, the inhibition at 100 µM came to 52 ± 10% and the Emax turned out to be 40%.
For `COc1ccc(CC(=O)N[C@H]2CCOC2=O)cc1` [C24], at SdiA [1], the EC50 was found to be 252 nM. On SdiA [2], the “Antagonism 1 μM Inhibition (%)” value was -11 ± 3% and the “Antagonism 100 μM Inhibition (%)” value was 4 ± 16%.
As for `Cc1cccc(CC(=O)N[C@H]2CCOC2=O)c1` [E1], the EC50 on SdiA [1] was 66.4 nM. Also, the Emax at SdiA [1] (setting [3]) was 99%. Also, at SdiA [2], the inhibition at 1 µM was -6 ± 7% and the inhibition at 100 µM was -14 ± 13%.
For `N#Cc1cccc(CC(=O)N[C@H]2CCOC2=O)c1` [E5] the same measures were 62.2 nM, 73%, 18 ± 8% and -8 ± 4%.
`CSc1ccc(CC(=O)N[C@H]2CCOC2=O)cc1` [E6]: the Emax at SdiA [1] (setting [4]) worked out at 74%. In addition, on SdiA [2], the inhibition at 1 µM came to 25 ± 16%, the inhibition at 100 µM is 44 ± 13% and the Emax came out at 49%.
With `CSc1cccc(CC(=O)N[C@H]2CCOC2=O)c1` [E7], the EC50 on SdiA [1] turned out to be 26 nM. Further, at SdiA [1] (setting [3]), the Emax was determined as 91%. On SdiA [2], the inhibition at 1 µM stood at 20 ± 14% and the inhibition at 100 µM came to 12 ± 13%.
`Cc1ccc(OCC(=O)N[C@H]2CCOC2=O)cc1` [E15]: on SdiA [1], the EC50 worked out at 33 nM. Further, the Emax on SdiA [1] (setting [3]) worked out at 98%. Moreover, at SdiA [2], the inhibition at 1 µM is -3 ± 5% and the inhibition at 100 µM is -17 ± 7%.
On to `Cc1cccc(OCC(=O)N[C@H]2CCOC2=O)c1` [E16], for which, at SdiA [1], the EC50 stood at 43.3 nM. Further, on SdiA [1] (setting [3]), the Emax is 100%. Besides, on SdiA [2], the inhibition at 1 µM was -2 ± 8% and the inhibition at 100 µM was -4 ± 5%.
For `O=C(COc1ccc(I)cc1)N[C@H]1CCOC1=O` [E22] the same measures were 10.4 nM, 108%, -5 ± 11% and -15 ± 8%.
For the molecule `O=C(CCc1cccc(I)c1)N[C@H]1CCOC1=O` [E33], at SdiA [1] (setting [4]), the Emax was determined as 67%. On SdiA [2], the inhibition at 1 µM amounted to 20 ± 6%, the inhibition at 100 µM is 38 ± 10% and the Emax was determined as 19%. For the same molecule, the IC50 on SdiA [2] (against 10 nM L-OOHL (EC90)) stood at 9640 nM.
Consider `CSc1ccc(CCC(=O)N[C@H]2CCOC2=O)cc1` [E34], for which the Emax on SdiA [1] (setting [4]) turned out to be 66%. On SdiA [2], the inhibition at 1 µM was 21 ± 15%, the inhibition at 100 µM came out at 39 ± 8% and the Emax was found to be 30%.
For `CCCCCC(=O)CC(=O)N[C@H]1CCSC1=O` [F2], at SdiA [1], the 50% effective concentration (EC50) was found to be 0.7 nM and the fold increase was 1.47^c. The Emax on SdiA [1] (setting [3]) came to 119%. Also, on SdiA [2], the inhibition at 1 µM was -19 ± 12% and the inhibition at 100 µM was -19 ± 15%.
On the same counts, the results for `CCCCCCCC(=O)N[C@H]1CCSC1=O` [F5] are 2.28 nM, 8.12, 79%, 3 ± 6% and 0%.
Turning to `CCCCCCCCCC(=O)NC1CCCC1` [compound 17, reference compound], on SdiA [2], the “Antagonism 1 μM Inhibition (%)” value is 26 ± 12% and the “Antagonism 100 μM Inhibition (%)” value was 28 ± 5%.
